Assay results published in ChEMBL document CHEMBL4024706 (Eur J Med Chem, 2017).

Assays:
[1] = target: BMP-2-inducible protein kinase (Homo sapiens) (UniProt Q9NSY1); test: Inhibition of wild-type human partial length BIKE (S34 to N329 residues) expressed in bacterial expression system assessed as residual activity at 1 uM by Kinomescan method relative to control
[2] = target: Phosphatidylinositol 5-phosphate 4-kinase type-2 gamma (Homo sapiens) (UniProt Q8TBX8); test: Inhibition of wild-type human partial length PIP5K2C (M1 to A421 residues) expressed in mammalian expression system assessed as residual activity at 1 uM by Kinomescan method relative to control
[3] = target: Protein kinase C delta type (Homo sapiens) (UniProt Q05655); test: Inhibition of wild-type human partial length PRKCD (Q328 to D676 residues) expressed in bacterial expression system assessed as residual activity at 1 uM by Kinomescan method relative to control
[4] = target: Serine/threonine-protein kinase PLK1 (Homo sapiens) (UniProt P53350); test: Inhibition of wild-type human partial length PLK1 (A33 to F325 residues) expressed in mammalian expression system assessed as residual activity at 1 uM by Kinomescan method relative to control
Chain of Serine/threonine-protein kinase PLK1 (Homo sapiens) (P53350 whole entry, the tested form may be a part): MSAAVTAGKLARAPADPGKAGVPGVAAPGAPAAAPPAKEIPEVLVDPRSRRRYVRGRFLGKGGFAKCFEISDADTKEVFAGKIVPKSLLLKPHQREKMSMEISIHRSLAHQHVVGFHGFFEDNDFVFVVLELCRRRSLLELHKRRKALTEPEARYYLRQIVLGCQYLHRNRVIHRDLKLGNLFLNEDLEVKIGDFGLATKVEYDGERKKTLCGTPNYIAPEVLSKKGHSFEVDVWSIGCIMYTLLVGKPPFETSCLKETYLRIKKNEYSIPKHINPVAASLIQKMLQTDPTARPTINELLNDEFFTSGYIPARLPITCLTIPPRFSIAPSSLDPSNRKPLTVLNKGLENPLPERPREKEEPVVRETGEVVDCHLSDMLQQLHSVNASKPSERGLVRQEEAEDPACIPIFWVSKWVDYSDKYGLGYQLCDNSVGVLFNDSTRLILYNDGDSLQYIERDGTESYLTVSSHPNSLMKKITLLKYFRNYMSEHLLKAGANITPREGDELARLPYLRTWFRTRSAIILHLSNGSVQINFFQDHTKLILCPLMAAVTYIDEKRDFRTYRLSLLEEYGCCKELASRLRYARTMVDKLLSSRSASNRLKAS

[5] = target: STE20-like serine/threonine-protein kinase (Homo sapiens) (UniProt Q9H2G2); test: Inhibition of wild-type human partial length SLK (S14 to A307 residues) expressed in bacterial expression system assessed as residual activity at 1 uM by Kinomescan method relative to control
[6] = target: G protein-coupled receptor kinase 3 (Homo sapiens) (UniProt P35626); test: Inhibition of wild-type human full length GRK3 (M1 to L688 residues) expressed in mammalian expression system assessed as residual activity at 1 uM by Kinomescan method relative to control
Chain of G protein-coupled receptor kinase 3 (Homo sapiens) (P35626 whole entry, the tested form may be a part): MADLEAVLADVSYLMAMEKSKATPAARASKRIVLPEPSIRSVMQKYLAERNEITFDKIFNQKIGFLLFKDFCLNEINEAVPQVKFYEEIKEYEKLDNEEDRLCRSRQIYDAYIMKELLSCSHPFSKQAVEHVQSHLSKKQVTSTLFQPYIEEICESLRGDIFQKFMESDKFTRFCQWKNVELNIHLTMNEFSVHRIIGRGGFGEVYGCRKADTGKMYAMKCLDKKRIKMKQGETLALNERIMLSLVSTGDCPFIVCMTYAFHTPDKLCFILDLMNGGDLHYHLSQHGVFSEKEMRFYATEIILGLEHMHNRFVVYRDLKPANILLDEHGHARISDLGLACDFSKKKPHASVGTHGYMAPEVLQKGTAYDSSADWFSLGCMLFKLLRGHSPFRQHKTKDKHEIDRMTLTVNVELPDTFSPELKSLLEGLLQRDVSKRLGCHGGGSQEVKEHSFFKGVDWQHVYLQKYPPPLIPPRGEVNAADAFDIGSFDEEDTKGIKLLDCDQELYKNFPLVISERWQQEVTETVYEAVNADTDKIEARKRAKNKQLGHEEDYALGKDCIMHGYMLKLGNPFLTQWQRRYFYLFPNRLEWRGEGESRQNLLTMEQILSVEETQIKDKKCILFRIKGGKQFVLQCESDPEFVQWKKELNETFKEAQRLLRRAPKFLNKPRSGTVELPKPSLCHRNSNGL

[7] = target: Serine/threonine-protein kinase B-raf (Homo sapiens) (UniProt P15056); test: Inhibition of wild-type human partial length BRAF (S429 to E741 residues) expressed in mammalian expression system assessed as residual activity at 1 uM by Kinomescan method relative to control
[8] = target: G protein-coupled receptor kinase 4 (Homo sapiens) (UniProt P32298); test: Inhibition of wild-type human full length GRK4 (M1 to C578 residues) expressed in bacterial expression system assessed as residual activity at 1 uM by Kinomescan method relative to control
[9] = target: Dual specificity tyrosine-phosphorylation-regulated kinase 1A (Homo sapiens) (UniProt Q13627); test: Inhibition of wild-type human partial length DYRK1A (H129 to S509 residues) expressed in mammalian expression system assessed as residual activity at 1 uM by Kinomescan method relative to control
[10] = target: Leukocyte tyrosine kinase receptor (Homo sapiens) (UniProt P29376); test: Inhibition of wild-type human partial length LTK (P422 to S744 residues) expressed in bacterial expression system assessed as residual activity at 1 uM by Kinomescan method relative to control
[11] = target: Serine/threonine-protein kinase Nek10 (Homo sapiens) (UniProt Q6ZWH5); test: Inhibition of wild-type human partial length NEK10 (L488 to R809 residues) expressed in mammalian expression system assessed as residual activity at 1 uM by Kinomescan method relative to control
Chain of Serine/threonine-protein kinase Nek10 (Homo sapiens) (Q6ZWH5 whole entry, the tested form may be a part): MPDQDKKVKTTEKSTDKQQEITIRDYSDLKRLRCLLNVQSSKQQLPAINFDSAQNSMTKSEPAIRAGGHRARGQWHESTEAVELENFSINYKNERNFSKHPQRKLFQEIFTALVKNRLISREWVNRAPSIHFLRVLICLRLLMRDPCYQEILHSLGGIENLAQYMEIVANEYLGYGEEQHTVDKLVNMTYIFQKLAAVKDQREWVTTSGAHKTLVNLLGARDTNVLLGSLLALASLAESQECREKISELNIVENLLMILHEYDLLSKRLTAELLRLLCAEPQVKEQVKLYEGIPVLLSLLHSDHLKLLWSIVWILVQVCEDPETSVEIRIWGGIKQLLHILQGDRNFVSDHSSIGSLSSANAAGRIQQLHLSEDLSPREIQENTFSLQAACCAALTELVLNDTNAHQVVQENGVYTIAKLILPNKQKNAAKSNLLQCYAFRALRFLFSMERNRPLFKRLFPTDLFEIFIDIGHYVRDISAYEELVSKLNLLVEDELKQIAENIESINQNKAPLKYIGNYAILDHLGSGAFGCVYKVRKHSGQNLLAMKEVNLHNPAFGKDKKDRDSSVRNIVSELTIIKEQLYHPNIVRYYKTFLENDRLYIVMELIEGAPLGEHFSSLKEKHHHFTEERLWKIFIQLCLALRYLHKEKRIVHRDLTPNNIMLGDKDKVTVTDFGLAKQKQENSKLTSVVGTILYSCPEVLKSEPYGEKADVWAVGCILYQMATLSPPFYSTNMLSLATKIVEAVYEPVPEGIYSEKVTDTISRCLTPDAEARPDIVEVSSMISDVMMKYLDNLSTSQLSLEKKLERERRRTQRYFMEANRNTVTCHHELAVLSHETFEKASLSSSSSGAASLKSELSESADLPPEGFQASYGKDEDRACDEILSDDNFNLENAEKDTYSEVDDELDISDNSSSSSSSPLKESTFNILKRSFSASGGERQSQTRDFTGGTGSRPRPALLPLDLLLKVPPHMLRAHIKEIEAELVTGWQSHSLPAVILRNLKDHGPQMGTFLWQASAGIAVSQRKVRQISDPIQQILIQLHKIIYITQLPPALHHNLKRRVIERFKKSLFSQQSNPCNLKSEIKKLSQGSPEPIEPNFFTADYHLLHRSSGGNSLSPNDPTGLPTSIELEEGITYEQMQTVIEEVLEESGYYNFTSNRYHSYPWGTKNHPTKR

[12] = target: Serine/threonine-protein kinase Nek7 (Homo sapiens) (UniProt Q8TDX7); test: Inhibition of wild-type human full length NEK7 (M1 to S302 residues) expressed in bacterial expression system assessed as residual activity at 1 uM by Kinomescan method relative to control
[13] = target: Serine/threonine-protein kinase Nek3 (Homo sapiens) (UniProt P51956); test: Inhibition of wild-type human full length NEK3 (M1 to R506 residues) expressed in mammalian expression system assessed as residual activity at 1 uM by Kinomescan method relative to control
[14] = target: Myosin-IIIb (Homo sapiens) (UniProt Q8WXR4); test: Inhibition of wild-type human partial length MYO3B (M1 to D357 residues) expressed in bacterial expression system assessed as residual activity at 1 uM by Kinomescan method relative to control
[15] = target: Serine/threonine-protein kinase TAO3 (Homo sapiens) (UniProt Q9H2K8); test: Inhibition of wild-type human partial length TAOK3 (M1 to T316 residues) expressed in mammalian expression system assessed as residual activity at 1 uM by Kinomescan method relative to control
[16] = target: Ribosomal protein S6 kinase alpha-5 (Homo sapiens) (UniProt O75582); test: Inhibition of wild-type human partial length C-terminal RPS6KA5 kinase domain 2 (V390 to T718 residues) expressed in bacterial expression system assessed as residual activity at 1 uM by Kinomescan method relative to control
U2932 = test: Growth inhibition of human U2932 cells; assay type: functional; conditions: Homo sapiens, U2932
[17] = target: 3-phosphoinositide-dependent protein kinase 1 (Homo sapiens) (UniProt O15530); test: Inhibition of wild-type human full length PDPK1 (M1 to Q556 residues) expressed in bacterial expression system assessed as residual activity at 1 uM by Kinomescan method relative to control
[18] = target: Serine/threonine-protein kinase Nek11 (Homo sapiens) (UniProt Q8NG66); test: Inhibition of wild-type human partial length NEK11 (M1 to E313 residues) expressed in mammalian expression system assessed as residual activity at 1 uM by Kinomescan method relative to control
Chain of Serine/threonine-protein kinase Nek11 (Homo sapiens) (Q8NG66 whole entry, the tested form may be a part): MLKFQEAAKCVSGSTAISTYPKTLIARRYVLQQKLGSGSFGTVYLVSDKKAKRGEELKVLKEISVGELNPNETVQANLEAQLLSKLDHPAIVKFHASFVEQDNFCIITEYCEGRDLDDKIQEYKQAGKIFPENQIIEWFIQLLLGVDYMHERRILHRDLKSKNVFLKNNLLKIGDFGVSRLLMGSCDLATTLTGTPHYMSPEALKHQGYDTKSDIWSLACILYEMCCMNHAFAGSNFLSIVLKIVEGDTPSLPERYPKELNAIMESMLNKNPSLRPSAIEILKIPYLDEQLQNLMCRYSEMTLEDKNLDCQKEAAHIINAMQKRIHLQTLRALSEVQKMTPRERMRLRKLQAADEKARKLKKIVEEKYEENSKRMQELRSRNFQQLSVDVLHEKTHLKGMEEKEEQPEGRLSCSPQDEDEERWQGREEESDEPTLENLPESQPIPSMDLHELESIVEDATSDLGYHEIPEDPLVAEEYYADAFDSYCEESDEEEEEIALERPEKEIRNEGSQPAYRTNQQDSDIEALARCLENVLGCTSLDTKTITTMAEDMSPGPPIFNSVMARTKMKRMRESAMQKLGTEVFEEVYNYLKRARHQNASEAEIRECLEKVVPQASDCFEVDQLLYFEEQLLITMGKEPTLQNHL

[19] = test system: Proto-oncogene tyrosine-protein kinase receptor Ret (Homo sapiens), P07949 [M918T]; test: Inhibition of human partial length RET M918T mutant (E713 to D1014 residues) expressed in bacterial expression system assessed as residual activity at 1 uM by Kinomescan method relative to control
Homo sapiens = species on record: Homo sapiens; test: Inhibition of human partial length FLT3 ITD/F691L double mutant expressed in bacterial expression system assessed as residual activity at 1 uM by Kinomescan method relative to control
[20] = target: Serine/threonine-protein kinase 35 (Homo sapiens) (UniProt Q8TDR2); test: Inhibition of wild-type human partial length STK35 (G182 to A534 residues) expressed in bacterial expression system assessed as residual activity at 1 uM by Kinomescan method relative to control
[21] = target: Serine/threonine-protein kinase DCLK1 (Homo sapiens) (UniProt O15075); test: Inhibition of wild-type human partial length DCAMKL1 (L270 to A662 residues) expressed in mammalian expression system assessed as residual activity at 1 uM by Kinomescan method relative to control
[22] = target: Calcium/calmodulin-dependent protein kinase type 1 (Homo sapiens) (UniProt Q14012); test: Inhibition of wild-type human full length CAMK1 (M1 to L370 residues) expressed in bacterial expression system assessed as residual activity at 1 uM by Kinomescan method relative to control
Chain of Calcium/calmodulin-dependent protein kinase type 1 (Homo sapiens) (Q14012 whole entry, looked up, the tested form may be a part): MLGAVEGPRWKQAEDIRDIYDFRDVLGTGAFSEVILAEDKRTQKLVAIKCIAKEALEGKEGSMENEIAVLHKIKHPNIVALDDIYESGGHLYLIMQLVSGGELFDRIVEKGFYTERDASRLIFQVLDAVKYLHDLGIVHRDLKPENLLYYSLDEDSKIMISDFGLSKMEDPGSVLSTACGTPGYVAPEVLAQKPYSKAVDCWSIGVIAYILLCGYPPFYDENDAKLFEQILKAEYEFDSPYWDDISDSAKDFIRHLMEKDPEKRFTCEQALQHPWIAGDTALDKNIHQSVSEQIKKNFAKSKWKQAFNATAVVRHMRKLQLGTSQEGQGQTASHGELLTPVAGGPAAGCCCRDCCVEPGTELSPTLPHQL

[23] = target: Tyrosine-protein kinase BTK (Homo sapiens, UniProt Q06187); test: Inhibition of BTK auto-phosphorylation at Y223 in human U2932 cells measured after 4 hrs by chemiluminescent assay
[24] = target: Cyclin-dependent kinase 4 (Homo sapiens) (UniProt P11802); test: Inhibition of wild-type human full length CDK4 (M1 to E303 residues) expressed in mammalian expression system assessed as residual activity at 1 uM by Kinomescan method relative to control
Chain of Cyclin-dependent kinase 4 (Homo sapiens) (P11802 whole entry, the tested form may be a part): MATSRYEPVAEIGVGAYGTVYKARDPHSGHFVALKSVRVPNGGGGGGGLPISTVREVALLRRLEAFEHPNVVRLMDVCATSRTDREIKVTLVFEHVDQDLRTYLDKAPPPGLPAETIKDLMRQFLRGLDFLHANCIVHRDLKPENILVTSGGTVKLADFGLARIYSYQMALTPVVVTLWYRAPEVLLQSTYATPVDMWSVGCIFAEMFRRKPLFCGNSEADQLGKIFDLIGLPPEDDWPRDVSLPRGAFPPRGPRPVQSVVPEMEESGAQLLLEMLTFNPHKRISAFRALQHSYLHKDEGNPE

Chain of BMP-2-inducible protein kinase (Homo sapiens) (Q9NSY1 whole entry, looked up, the tested form may be a part): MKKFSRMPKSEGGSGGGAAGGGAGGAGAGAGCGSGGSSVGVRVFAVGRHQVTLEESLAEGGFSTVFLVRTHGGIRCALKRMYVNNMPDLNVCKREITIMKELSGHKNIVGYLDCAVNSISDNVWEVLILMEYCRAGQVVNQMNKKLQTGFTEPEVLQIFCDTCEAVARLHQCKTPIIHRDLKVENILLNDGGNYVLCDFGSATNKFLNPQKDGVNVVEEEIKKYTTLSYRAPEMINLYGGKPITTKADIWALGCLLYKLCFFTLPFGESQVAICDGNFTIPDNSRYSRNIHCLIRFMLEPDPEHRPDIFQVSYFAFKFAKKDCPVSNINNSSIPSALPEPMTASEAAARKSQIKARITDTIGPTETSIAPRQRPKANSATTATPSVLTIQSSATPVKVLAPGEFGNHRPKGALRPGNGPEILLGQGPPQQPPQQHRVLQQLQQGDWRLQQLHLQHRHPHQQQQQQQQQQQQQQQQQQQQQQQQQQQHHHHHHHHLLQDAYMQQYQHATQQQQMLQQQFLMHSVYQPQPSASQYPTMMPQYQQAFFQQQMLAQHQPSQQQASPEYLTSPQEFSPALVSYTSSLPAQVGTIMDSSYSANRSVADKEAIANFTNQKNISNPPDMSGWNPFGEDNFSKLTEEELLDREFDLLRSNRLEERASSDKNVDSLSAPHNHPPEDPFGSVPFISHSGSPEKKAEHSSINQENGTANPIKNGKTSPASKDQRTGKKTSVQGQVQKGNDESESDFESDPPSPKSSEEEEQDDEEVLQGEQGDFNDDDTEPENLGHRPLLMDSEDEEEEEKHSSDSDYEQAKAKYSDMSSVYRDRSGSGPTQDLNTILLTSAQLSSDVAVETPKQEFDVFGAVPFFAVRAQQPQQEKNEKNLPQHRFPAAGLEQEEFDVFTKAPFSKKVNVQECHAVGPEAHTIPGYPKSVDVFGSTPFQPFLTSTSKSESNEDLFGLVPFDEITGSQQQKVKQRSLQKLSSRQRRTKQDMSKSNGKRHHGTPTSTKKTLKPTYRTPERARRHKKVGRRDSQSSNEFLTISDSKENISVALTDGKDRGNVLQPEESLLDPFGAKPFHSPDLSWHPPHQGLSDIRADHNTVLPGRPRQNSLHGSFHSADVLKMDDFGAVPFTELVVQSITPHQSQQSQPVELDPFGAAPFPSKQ

C=CC(=O)Nc1cc(Nc2cc(-c3cccc(NC(=O)c4ccc(C(C)(C)C)cc4)c3C)cn(C)c2=O)ccc1C(=O)N1CCOCC1
Activity [1]: 94% | Activity [2]: 97% | Activity [3]: 96% | Activity [4]: 100% | Activity [5]: 100% | Activity [6]: 73% | Activity [7]: 100% | Activity [8]: 80% | Activity [9]: 100% | Activity [10]: 81% | Activity [11]: 92% | Activity [12]: 95% | Activity [13]: 97% | Activity [14]: 86% | Activity [15]: 94% | Activity [16]: 100% | GI50 (U2932): 2400 nM | Activity [17]: 90% | Activity [18]: 97% | Activity [19]: 100% | Activity (Homo sapiens): 87% | Activity [20]: 94% | Activity [21]: 95% | Activity [22]: 92% | EC50 [23]: < 30 nM | Activity [24]: 100%
